In patent US20250289793A1, “MACROCYCLIC INHIBITORS OF ATP CITRATE LYASE” (Esperion Therapeutics, Inc., priority 2022, published 2025):
Where two headings read alike, the source gives them in different places.

Tests used:
[1] = from COc1c(Cl)cc(C(=O)O)cc1S(=O)(=O)Cc1cc(-c2ccccc2OCCN)c(F)cc1F; amide bond; 15-membered ring; T3P/DIPEA; DMF; 48.0 mM; 21.0 h
[2] = 15-membered ring
ACLY [3] = biological target: T1, ACLY (Homo sapiens (Human), UniProt P53396); test: Human ACLY (hACLY) RF/MS activity assay; format: biochemical; conditions: 1 nM hACLY; 30 min pre-incubation; 15 μM Coenzyme A, 50 μM ATP, 50 μM citrate; CoA to Acetyl-CoA by RF/MS; read-out: RFMS IC50 GMean
T1 sequence (P53396 whole entry): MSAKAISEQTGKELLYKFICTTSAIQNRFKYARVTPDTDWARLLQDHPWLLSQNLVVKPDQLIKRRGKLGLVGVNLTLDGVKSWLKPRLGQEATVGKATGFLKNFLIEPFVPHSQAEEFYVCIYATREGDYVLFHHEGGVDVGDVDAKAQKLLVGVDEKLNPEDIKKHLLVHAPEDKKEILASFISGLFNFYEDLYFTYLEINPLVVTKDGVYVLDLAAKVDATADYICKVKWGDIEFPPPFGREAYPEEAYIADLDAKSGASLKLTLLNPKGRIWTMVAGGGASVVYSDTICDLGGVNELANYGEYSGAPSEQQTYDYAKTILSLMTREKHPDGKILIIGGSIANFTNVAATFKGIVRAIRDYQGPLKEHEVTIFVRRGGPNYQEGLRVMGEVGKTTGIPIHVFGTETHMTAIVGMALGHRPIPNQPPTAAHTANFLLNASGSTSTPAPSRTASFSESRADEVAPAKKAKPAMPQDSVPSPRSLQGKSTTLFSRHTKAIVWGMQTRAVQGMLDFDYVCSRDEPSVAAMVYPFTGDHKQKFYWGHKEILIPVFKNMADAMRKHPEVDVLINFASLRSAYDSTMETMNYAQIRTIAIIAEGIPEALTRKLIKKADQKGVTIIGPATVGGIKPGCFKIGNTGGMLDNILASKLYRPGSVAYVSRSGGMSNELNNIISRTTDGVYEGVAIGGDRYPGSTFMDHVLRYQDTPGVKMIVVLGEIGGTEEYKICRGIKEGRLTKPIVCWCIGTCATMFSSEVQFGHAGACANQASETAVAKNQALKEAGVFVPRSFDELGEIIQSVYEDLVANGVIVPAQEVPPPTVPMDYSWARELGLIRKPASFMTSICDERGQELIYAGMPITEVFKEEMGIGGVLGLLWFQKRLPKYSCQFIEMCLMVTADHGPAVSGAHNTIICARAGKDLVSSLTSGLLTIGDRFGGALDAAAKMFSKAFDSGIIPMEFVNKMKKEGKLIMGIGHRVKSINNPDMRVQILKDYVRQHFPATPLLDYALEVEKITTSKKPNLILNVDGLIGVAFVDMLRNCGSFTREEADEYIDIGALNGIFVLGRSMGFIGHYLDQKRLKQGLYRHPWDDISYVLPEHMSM
How it was run: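 RapidFire MS read CoA-to-acetyl-CoA conversion as a substrate/product ratio after 30 min at RT (20° C) with final 15 μM CoA, 50 μM ATP, 50 μM citrate. Before substrate addition, 1 nM enzyme sat 30 min with compound (top 10 μM, two-fold dilutions; 1% DMSO) in pH 8.0 Hepes/MgCl2/NaCl/DTT buffer.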

[4] = biological target: Recombinant human ACLY full length protein (Homo sapiens (Human), UniProt P53396); test: hACLY ADP-Glo activity assay; format: biochemical; conditions: 0.5 nM ACLY; 15 μM sodium citrate, 1 μM coenzyme A, 80 μM ATP; ADP formed, luminescence; read-out: ADP-Glo IC50 GMean
Recombinant human ACLY full length protein, sequence (P53396 whole entry): as above
Description: Compounds of the disclosure were evaluated for their efficacy in inhibiting hACLY using an ADP-Glo™ assays that measure ADP formed from the enzymatic activity of hACLY.
Test compounds were 3-fold serially diluted in DMSO over 11-point concentration range and dispensed onto a 384-well plate. Recombinant human ACLY full length protein was purified. Concentrations of ACLY protein, sodium citrate, coenzyme A, and ATP in the reaction were optimized for standardized homogenous enzyme assay using ADP-Glo™ Kinase (Promega Inc.). The assay measured ADP formed from the enzymatic reaction.
The reaction buffer consisted of the assay buffer (50 mM HEPES pH 8.0, 10 mM MgCl2, 4 mM 1,4-Dithiothreitol, 0.01% Brij® 35).
ACLY protein (0.5 nM) was added to the prepared reaction buffer, and the mixture was dispensed into the assay plate and incubated for 30 minutes at room temperature. Next, 15 μM sodium citrate, 1 μM coenzyme A, and 80 μM ATP were added into the assay plate and incubated for 60 minutes at room temperature. The final reaction volume for each well was 5 μL.
5 μL of ADP-Glo™ reagent was added, and the mixture was incubated for 40 minutes at room temperature. 10 μl ADP-Glo™ detection reagent was added, and the mixture was incubated for 30 minutes at room temperature. Luminescence was determined using EnVision microplate reader with ultra-luminescence module (Perkin Elmer Inc). Concentration-response curve-fitting and IC50 determination was performed using Xlfit Software (version 5.5.0) with a four-parameter logistic regression fit model.

ACLY [5] = biological target: T1, ACLY; test: InCell Pulse assay (permeate HEK293 cells, bind to and stabilize ACLY); format: cell-based; conditions: HEK293 cells transfected with pICP-ACLY(FL)-ePL; 1 hour at 37° C., 55° C. heat pulse 10 minutes; read-out: InCell Pulse IC50 GMean
How it was run: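 HEK293 cells transiently expressing full-length ACLY-ePL were exposed in OptiMEM to 11-point, 3-fold compound dilutions for 1 h at 37 °C, heat-pulsed 10 min at 55 °C, then lysed for enzyme-fragment complementation luminescence. Four-parameter fit, normalised to 0.5% DMSO and 1 μM NDI-094311.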

HepG2 cells = test: Fatty acid synthesis (FAS) assay in HepG2 cells; format: cell-based; conditions: Homo sapiens, 1.5 h, 14C-citrate 50 μM, 90 min, read-out: FAS IC50 GMean
Description: HepG2 cells were seeded into white clear-bottom 96-well plates (50,000/well) coated with collagen and incubated at 37° C. for 16-24 hours. Thereafter the plates were washed once with 100 μL PBS (+CaCl2+MgCl2) and 50 μL assay medium ([…] containing 11 mM glucose, 10 mM HEPES and 1 nM Insulin) per well was added. Test substances in assay medium were added (10 μL, 0.5% DMSO) and incubated for 20 min at 37° C. After that 10 μL assay medium containing ^14C-citrate (final concentration 50 μM) and PrestoBlue reagent (lx final concentration; ThermoFisher) were added and incubated for 90 min (37° C., 5% CO2). Cell viability was measured (Multiskan FC, microplate reader, absorbance 570 nm). Medium was removed by inverting the plate and cells were washed once with 100 μL ice-cold PBS. Cells were lysed with 50 μL lysis buffer (0.1 N NaOH, 0.1% Triton X-100) and plate was sealed with Tape Pads and vortexed. For the saponification reaction plates were incubated for 16-24 hours at 80° C. Seals were removed and 200 μL 0.1 N HCl was added for neutralisation of the pH. 150 μL from each well was transferred into the corresponding wells of a 96-well Flash plate (Perkin Elmer) and sealed with TopSeal A (Perkin Elmer). Plates were incubated for 4 h at 70° C., and for 1 h at room temperature in the dark. Signal of ^14C radioactivity was measured (TopCount). As a positive control 5 mM unlabelled citrate or C75 (Sigma, C5490) was applied.

| IC50 (ACLY [3]) [µM] | IC50 [4] [µM] | IC50 (ACLY [5]) [µM] | IC50 (HepG2 cells) [µM] | SMILES | ring closure, crude yield [1] [%] | ring closure, yield after HPLC ([2]; from COc1c(Cl)cc(C(=O)O)cc1S(=O)(=O)Nc1cc(-c2ccccc2OCCO)c(F)cc1F, ester bond, 2,4,6-trichlorobenzoyl chloride/DIEA/DMAP, THF, 13.1 mM, 65.0 °C, 4.0 h) [%] | ring closure, yield after HPLC ([2]; from 3-[[5-[2-(2-aminoethoxy)phenyl]-2,4-difluoro-phenyl]sulfamoyl]-5-chloro-4-(difluoromethoxy)benzoic acid·HCl, amide bond, T3P/DIPEA, DMF, 18.1 mM) [%] |
| --- | --- | --- | --- | --- | --- | --- | --- |
| 0.02 to 0.1 | 0.001 to 0.01 | 1 to 50 | 10 to 50 | CN1CCOc2ccccc2-c2cc(c(F)cc2F)NS(=O)(=O)c2cc(cc(Cl)c2O)C1=O [Compound 4, 15-chloro-21,23-difluoro-16-hydroxy-11-methyl-8-oxa-18lambda6-thia-11,19-diazatetracyclo[18.3.1.1^13,17.0^2,7]pentacosa-1(24),2,4,6,13,15,17(25),20,22-nonaene-12,18,18-trione] |  |  |  |
| 0.02 to 0.1 | 0.001 to 0.01 | 0.3 to 1 | 10 to 50 | O=C1NCCCc2ccccc2-c2cc(c(F)cc2F)NS(=O)(=O)c2cc1cc(Cl)c2O [Compound 8, 15-chloro-21,23-difluoro-16-hydroxy-18lambda6-thia-11,19-diazatetracyclo[18.3.1.1^13,17.0^2,7]pentacosa-1(24),2,4,6,13,15,17(25),20,22-nonaene-12,18,18-trione] |  |  |  |
| 0.02 to 0.1 | 0.001 to 0.01 | < 0.3 | 2 to 10 | CN1CCCc2ccccc2-c2cc(c(F)cc2F)NS(=O)(=O)c2cc(cc(Cl)c2O)C1=O [Compound 10, 15-chloro-21,23-difluoro-16-hydroxy-11-methyl-18lambda6-thia-11,19-diazatetracyclo[18.3.1.1^13,17.0^2,7]pentacosa-1(24),2,4,6,13,15,17(25),20,22-nonaene-12,18,18-trione] |  |  |  |
| 0.02 to 0.1 | < 0.001 | < 0.3 | < 2 | O=C1OCCCc2ccccc2-c2cc(c(F)cc2F)NS(=O)(=O)c2cc1cc(Cl)c2O [Compound 16, 15-chloro-21,23-difluoro-16-hydroxy-11-oxa-18lambda6-thia-19-azatetracyclo[18.3.1.1^13,17.0^2,7]pentacosa-1(24),2,4,6,13,15,17(25),20,22-nonaene-12,18,18-trione] |  |  |  |

Further lines, the compound ahead of its results:

| SMILES | IC50 (ACLY [3]) [µM] | IC50 [4] [µM] | IC50 (ACLY [5]) [µM] | IC50 (HepG2 cells) [µM] | ring closure, crude yield [1] [%] | ring closure, yield after HPLC ([2]; from COc1c(Cl)cc(C(=O)O)cc1S(=O)(=O)Nc1cc(-c2ccccc2OCCO)c(F)cc1F, ester bond, 2,4,6-trichlorobenzoyl chloride/DIEA/DMAP, THF, 13.1 mM, 65.0 °C, 4.0 h) [%] | ring closure, yield after HPLC ([2]; from 3-[[5-[2-(2-aminoethoxy)phenyl]-2,4-difluoro-phenyl]sulfamoyl]-5-chloro-4-(difluoromethoxy)benzoic acid·HCl, amide bond, T3P/DIPEA, DMF, 18.1 mM) [%] |
| --- | --- | --- | --- | --- | --- | --- | --- |
| COc1c(Cl)cc2cc1S(=O)(=O)Cc1cc(c(F)cc1F)-c1ccccc1OCCNC2=O |  |  |  |  | 81 |  |  |
| COc1c(Cl)cc2cc1S(=O)(=O)Nc1cc(c(F)cc1F)-c1ccccc1OCCOC2=O |  |  |  |  |  | 18 |  |
| O=C1NCCOc2ccccc2-c2cc(c(F)cc2F)NS(=O)(=O)c2cc1cc(Cl)c2O [Compound 2, 15-chloro-21,23-difluoro-16-hydroxy-8-oxa-18lambda6-thia-11,19-diazatetracyclo[18.3.1.1^13,17.0^2,7]pentacosa-1(24),2,4,6,13,15,17(25),20,22-nonaene-12,18,18-trione] | 0.02 to 0.1 | 0.001 to 0.01 | 1 to 50 | ≥ 50 |  |  |  |
| O=C1NCCCOc2ccccc2-c2cc(c(F)cc2F)NS(=O)(=O)c2cc1cc(Cl)c2O [Compound 6, 16-chloro-22,24-difluoro-17-hydroxy-8-oxa-19lambda6-thia-12,20-diazatetracyclo[19.3.1.1^14,18.0^2,7]hexacosa-1(25),2,4,6,14,16,18(26),21,23-nonaene-13,19,19-trione] | 0.1 to 10 | 0.01 to 1 | ≥ 50 | 10 to 50 |  |  |  |
| O=C1OCCOc2ccccc2-c2cc(c(F)cc2F)NS(=O)(=O)c2cc1cc(Cl)c2O [Compound 7, 15-chloro-21,23-difluoro-16-hydroxy-8,11-dioxa-18lambda6-thia-19-azatetracyclo[18.3.1.1^13,170^2,7]pentacosa-1(24),2,4,6,13,15,17(25),20,22-nonaene-12,18,18-trione] |  |  |  | < 2 |  |  |  |
| CN1c2cc(c(F)cc2F)-c2ccccc2OCCNC(=O)c2cc(Cl)c(O)c(c2)S1(=O)=O [Compound 9, 15-chloro-21,23-difluoro-16-hydroxy-19-methyl-8-oxa-18lambda6-thia-11,19-diazatetracyclo[18.3.1.1^13,17.0^2,7]pentacosa-1(24),2,4,6,13,15,17(25),20,22-nonaene-12,18,18-trione] | ≥ 10 | ≥ 1 | ≥ 50 | ≥ 50 |  |  |  |
| O=C1NCCOc2ccccc2-c2cc(c(F)cc2F)NS(=O)(=O)c2cc1cc(Cl)c2OC(F)F [Compound 15, 15-chloro-16-(difluoromethoxy)-21,23-difluoro-8-oxa-18lambda6-thia-11,19-diazatetracyclo[18.3.1.1^13,17.0^2,7]pentacosa-1(24),2,4,6,13,15,17(25),20,22-nonaene-12,18,18-trione] | ≥ 10 | ≥ 1 | ≥ 50 | 2 to 10 |  |  | 48 |
| C[C@H]1COc2ccccc2-c2cc(c(F)cc2F)NS(=O)(=O)c2cc(cc(Cl)c2O)C(=O)N1 [Compound 17, (10S)-15-chloro-21,23-difluoro-16-hydroxy-10-methyl-8-oxa-18lambda6-thia-11,19-diazatetracyclo[18.3.1.1^13,17.0^2,7]pentacosa-1(24),2,4,6,13,15,17(25),20,22-nonaene-12,18,18-trione] | 0.1 to 10 | 0.01 to 1 | ≥ 50 | ≥ 50 |  |  |  |
| O=C1OCCOc2cc(Cl)ccc2-c2cc(c(F)cc2F)NS(=O)(=O)c2cc1cc(Cl)c2O [Compound 18, 5,15-dichloro-21,23-difluoro-16-hydroxy-8,11-dioxa-18lambda6-thia-19-azatetracyclo[18.3.1.1^13,17.0^2,7]pentacosa-1(24),2,4,6,13,15,17(25),20,22-nonaene-12,18,18-trione] | 0.02 to 0.1 | 0.001 to 0.01 | 0.3 to 1 | 2 to 10 |  |  |  |
